# In patent US12084472B2 (Ardelyx, Inc., priority 2015, dated 2024):
# Molecular target: T1, human TGR5 (Homo sapiens, UniProt Q8TDU6)
# T1 construct: expressed in transfected cells; host or cells: HEK293
# T1 sequence (Q8TDU6 1-330): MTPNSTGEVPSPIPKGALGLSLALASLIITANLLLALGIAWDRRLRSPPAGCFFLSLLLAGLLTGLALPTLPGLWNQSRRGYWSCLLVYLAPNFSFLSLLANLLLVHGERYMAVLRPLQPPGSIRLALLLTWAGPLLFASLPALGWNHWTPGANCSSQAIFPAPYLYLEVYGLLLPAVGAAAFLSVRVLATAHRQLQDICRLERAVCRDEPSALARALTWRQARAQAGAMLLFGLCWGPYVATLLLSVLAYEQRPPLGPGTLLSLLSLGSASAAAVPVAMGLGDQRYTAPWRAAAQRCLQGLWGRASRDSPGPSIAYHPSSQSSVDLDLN
# Experiment: Cell-based TGR5 assay (cAMP generation, HTRF)
# Conditions: HEK293 cells stably transfected with human TGR5; cAMP by HTRF; 30 minutes at 37° C.; read-out: pEC50 Human TGR5 (converted)
# Procedure, shortened: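 First, compounds in 3-fold serial dilution were placed in HBSS with 10 mM HEPES pH 7.4 and 0.5 mM IBMX. Next, human TGR5-expressing HEK293 cells were added and incubated 30 min at 37° C. Finally, cAMP was detected by HTRF and pEC50 derived by logistic fitting.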
row,SMILES,EC50
1,"O=C(CCCCc1ccc(Cl)c(CNC2(c3cnccc3-c3ccccc3OC3CC3)CC2)c1)NC[C@H](O)[C@@H](O)[C@H](O)[C@H](O)CO (stereo in doubt) [Compound I-233, 5-{4-chloro-3-[({1-[4-(2-cyclopropoxyphenyl)pyridin-3-yl]cyclopropyl}amino)methyl]phenyl}-N-[(2S,3R,4R,5R)-2,3,4,5,6-pentahydroxyhexyl]pentanamide]",< 100 nM
2,"CN(C[C@H](O)[C@@H](O)[C@H](O)[C@H](O)CO)C(=O)CCCCc1ccc(Cl)c(CNC2(c3cnccc3-c3ccccc3OC3CC3)CC2)c1 (stereo in doubt) [Compound I-234, 5-{4-chloro-3-[({1-[4-(2-cyclopropoxyphenyl)pyridin-3-yl]cyclopropyl}amino)methyl]phenyl}-N-methyl-N-[(2S,3R,4R,5R)-2,3,4,5,6-pentahydroxyhexyl]pentanamide]",< 100 nM
3,"Cc1ccc(CCCCC(=O)NC[C@H](O)[C@@H](O)[C@H](O)[C@H](O)CO)cc1CNC1(c2cnccc2-c2ccccc2OC2CC2)CC1 (stereo in doubt) [Compound I-237, 5-{3-[({1-[4-(2-cyclopropoxyphenyl)pyridin-3-yl]cyclopropyl}amino)methyl]-4-methylphenyl}-N-[(2S,3R,4R,5R)-2,3,4,5,6-pentahydroxyhexyl]pentanamide]",126 to 1000 nM
4,"Cc1ccc(CCCCC(=O)N(C)C[C@H](O)[C@@H](O)[C@H](O)[C@H](O)CO)cc1CNC1(c2cnccc2-c2ccccc2OC2CC2)CC1 (stereo in doubt) [Compound I-238, 5-{3-[({1-[4-(2-cyclopropoxyphenyl)pyridin-3-yl]cyclopropyl}amino)methyl]-4-methylphenyl}-N-methyl-N-[(2S,3R,4R,5R)-2,3,4,5,6-pentahydroxyhexyl]pentanamide]",126 to 1000 nM

# Continued, values first:
row,EC50,SMILES
1,< 100 nM,"CN(CCCCCc1cc(Cl)c(COC2(c3cnccc3-c3ccccc3OC3CC3)CC2)cc1Cl)C(=O)[C@@H](O)[C@@H](O)[C@H](O)[C@@H](O)CO (stereo in doubt) [Compound I-228, (2S,3S,4R,5S)-N-{5-[2,5-dichloro-4-({1-[4-(2-cyclopropoxyphenyl)pyridin-3-yl]cyclopropoxy}methyl)phenyl]pentyl}-2,3,4,5,6-pentahydroxy-N-methylhexanamide]"
2,< 100 nM,"O=C(CCCCc1ccc(Cl)c(COC2(c3cnccc3-c3ccccc3OC3CC3)CC2)c1)NC[C@H](O)[C@@H](O)[C@H](O)[C@H](O)CO (stereo in doubt) [Compound I-231, 5-[4-chloro-3-({1-[4-(2-cyclopropoxyphenyl)pyridin-3-yl]cyclopropoxy}methyl)phenyl]-N-[(2S,3R,4R,5R)-2,3,4,5,6-pentahydroxyhexyl]pentanamide]"
3,< 100 nM,"CN(C[C@H](O)[C@@H](O)[C@H](O)[C@H](O)CO)C(=O)CCCCc1ccc(Cl)c(COC2(c3cnccc3-c3ccccc3OC3CC3)CC2)c1 (stereo in doubt) [Compound I-232, 5-[4-chloro-3-({1-[4-(2-cyclopropoxyphenyl)pyridin-3-yl]cyclopropoxy}methyl)phenyl]-N-methyl-N-[(2S,3R,4R,5R)-2,3,4,5,6-pentahydroxyhexyl]pentanamide]"
4,< 100 nM,"Cc1ccc(CCCCC(=O)NC[C@H](O)[C@@H](O)[C@H](O)[C@H](O)CO)cc1COC1(c2cnccc2-c2ccccc2OC2CC2)CC1 (stereo in doubt) [Compound I-235, 5-[3-({1-[4-(2-cyclopropoxyphenyl)pyridin-3-yl]cyclopropoxy}methyl)-4-methylphenyl]-N-[(2S,3R,4R,5R)-2,3,4,5,6-pentahydroxyhexyl]pentanamide]"
5,< 100 nM,"Cc1ccc(CCCCC(=O)N(C)C[C@H](O)[C@@H](O)[C@H](O)[C@H](O)CO)cc1COC1(c2cnccc2-c2ccccc2OC2CC2)CC1 (stereo in doubt) [Compound I-236, 5-[3-({1-[4-(2-cyclopropoxyphenyl)pyridin-3-yl]cyclopropoxy}methyl)-4-methylphenyl]-N-methyl-N-[(2S,3R,4R,5R)-2,3,4,5,6-pentahydroxyhexyl]pentanamide]"
